IC50 data for three molecules are collected here from patent US7402580B2, “Fused pyridazine derivative compounds and drugs containing these compounds as the active ingredient” (Ono Pharmaceutical Co., Ltd., priority 2002, dated 2008).

T1 sequence (P09874 whole entry): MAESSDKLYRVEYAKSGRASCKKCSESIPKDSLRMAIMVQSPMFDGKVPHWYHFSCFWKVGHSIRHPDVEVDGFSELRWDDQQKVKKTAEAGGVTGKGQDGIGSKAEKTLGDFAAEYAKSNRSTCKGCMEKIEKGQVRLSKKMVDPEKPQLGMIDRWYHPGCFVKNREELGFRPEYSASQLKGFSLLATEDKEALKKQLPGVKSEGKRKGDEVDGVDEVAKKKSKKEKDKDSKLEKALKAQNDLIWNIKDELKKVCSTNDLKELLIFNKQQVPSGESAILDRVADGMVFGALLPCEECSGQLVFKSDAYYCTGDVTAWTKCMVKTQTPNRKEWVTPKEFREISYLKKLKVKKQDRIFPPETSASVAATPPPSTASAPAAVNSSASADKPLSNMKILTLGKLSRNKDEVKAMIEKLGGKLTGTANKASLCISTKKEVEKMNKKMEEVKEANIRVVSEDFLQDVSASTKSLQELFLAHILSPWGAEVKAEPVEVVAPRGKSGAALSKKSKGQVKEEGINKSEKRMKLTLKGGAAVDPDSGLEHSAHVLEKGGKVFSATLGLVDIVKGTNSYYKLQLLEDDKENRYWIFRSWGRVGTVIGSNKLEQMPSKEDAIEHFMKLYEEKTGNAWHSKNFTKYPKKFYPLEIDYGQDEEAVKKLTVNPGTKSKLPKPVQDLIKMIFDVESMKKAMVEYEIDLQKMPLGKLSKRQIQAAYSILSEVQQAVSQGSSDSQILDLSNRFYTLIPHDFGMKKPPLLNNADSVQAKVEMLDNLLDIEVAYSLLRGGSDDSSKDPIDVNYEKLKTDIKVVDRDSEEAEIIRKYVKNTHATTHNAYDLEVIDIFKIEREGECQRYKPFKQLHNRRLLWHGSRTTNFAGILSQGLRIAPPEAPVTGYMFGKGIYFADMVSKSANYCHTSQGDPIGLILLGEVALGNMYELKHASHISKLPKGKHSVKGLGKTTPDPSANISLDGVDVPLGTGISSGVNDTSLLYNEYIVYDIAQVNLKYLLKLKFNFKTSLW

This experiment has as its target T1, PARP (TREVIGEN) (Homo sapiens, UniProt P09874).
T1 construct: purchased TREVIGEN
Put plainly: Enzyme assay in vitro (PARP inhibitory activity, 3H-NAD incorporation). The experiment is classed as biochemical. To be noted: 50% inhibitory concentration, control (distilled water) = 100%; reaction 10 minutes at room temperature. On the procedure:
The below procedure was carried out with 96 well plate at room temperature. In a final volume of […], the reaction mixture contained each 10 μL of 500 mM Tris/HCl (pH 8.0, WAKO), 100 mM MgCl2, 50 mM dithiothreitol (sigma), 1 mg/mL activated DNA and 1 mM NAD (containing ^3H-NAD). The 10 μL of test compound was added to the reaction mixture and the reaction was started by addition of 10 μL of 0.1 U/μL PARP (TREVIGEN). The reaction was terminated at 10 minutes by addition of 100 μL of 20% trichloroacetic acid. Poly(ADP-ribose), which is the reaction product, was collected on a glass fiber filter (GF/C, PACKARD). The radioactivity was measured by topcount (PACKARD). Inhibitory activity of the compound was represented by 50% inhibitory concentration calculated as 100% of control (distilled water).
As to `Nc1cccc(-c2n[nH]c(=O)c3c2NCCC3)c1` [11(4), 8-(3-aminophenyl)-2,3,4,6-tetrahydropyrido[2,3-d]pyridazin-5(1H)-one], the IC50 worked out at 100 nM.

In turn, `Nc1cc(N)cc(C2=NNC(=O)C3CSCCN23)c1` (stereo not drawn) [6(9), 4-(3,5-diaminophenyl)-6,7,9,9a-tetrahydro[1,4]thiazino[4,3-d][1,2,4]triazin-1(2H)-one] returned an IC50 of 610 nM. For `NCCNC(=O)Cc1n[nH]c(=O)c2c1CCCC2` [30(4), 4-(N-(2-aminoethyl)carbamoylmethyl)-5,6,7,8-tetrahydrophthalazin-1(2H)-one] the value was 290 nM.

The term IC50 denotes the concentration that gives 50% inhibition.
